Data as given in patent publication US9556228B2 (Universitaet Leipzig, priority 2011, dated 2017).
Values after ≈ are worked out from the molar mass of the structure shown. Peptide text beside a SMILES is read from it.

Legend:
Type in all cases: cell-based
[1] = tested on: Pseudomonas aeruginosa PAO1 (wt strain); conditions: for Improvement over Native Sequence (SEQ No. 2) P. aeruginosa PAO1 wt: fold, from MIC in 1/8 MHB
Procedure: (§1) The minimum inhibitory concentrations (MIC) of the peptides were determined in a double assay of triplicates using a positive control sample (gentamycin) and a negative control sample (0.9% NaCl solution), according to a modified protocol from Wiegand et al. (Wiegand, 2008).
(§2) For this purpose, the peptides were dissolved in water and were diluted in a double dilution series with 1/8 MH (eight-fold diluted Mueller-Hinton-Medium—2.6 g/L, Merck) in sterile 96-well, plates (Greiner Bio-One GmbH) in twelve dilution steps from 128 μg/mL to 62.5 ng/mL. Overnight cultures were adjusted using ⅛ MHB to approximately 1.5×10^7 colony forming units per mL. Of these, 50 μL of peptide solution per well was mixed with 50 μL bacteria solution each to obtain an initial concentration of […] bacteria per well. After 20 hours of incubation at 37′C, the absorption was determined at 595 nm (microplate reader, Wallac Victor3, Perkin Elmer). The minimum inhibitory concentration was identified as the lowest peptide concentration at which no bacterial growth could be detected.
(§3) In the experiment, the antibacterial activity of the peptides according to the invention in relation to the following bacterial strains was analyzed: Pseudomonas aeruginosa PAO1 (wt strain), Pseudomonas aeruginosa DSM 9644, Staphylococcus aureus DSM 1104/ATCC 25923, Staphylococcus aureus ATCC 6247, Escherichia coli UB 1005 (F—, nalA37, metB1) and Escherichia coli ATCC25922.

[2] = tested on: Staphylococcus aureus DSM 1104/ATCC 25923; conditions: for MIC S. aureus ATCC 25923: DSM 1104; for Improvement over Native Sequence (SEQ No. 2) S. aureus ATCC 25923: fold, from MIC in 1/8 MHB
Procedure: as §1, §2, §3

[3] = tested on: Escherichia coli UB 1005; test: Minimum inhibitory concentration (MIC), broth microdilution; conditions: for MIC E. coli UB1005: 1/8 MHB, Table 4; for Improvement over Native Sequence (SEQ No. 2) E. coli UB1005: fold, from MIC in 1/8 MHB
Procedure: as §1, §2, §3

| SMILES | MIC P. aeruginosa PAO1 wt [1] [µg/mL] | Improvement over Native Sequence (SEQ No. 2) P. aeruginosa PAO1 wt [1] | MIC S. aureus ATCC 25923 [2] [µg/mL] | Improvement over Native Sequence (SEQ No. 2) S. aureus ATCC 25923 [2] | MIC E. coli UB1005 [3] [µg/mL] | Improvement over Native Sequence (SEQ No. 2) E. coli UB1005 [3] |
| --- | --- | --- | --- | --- | --- | --- |
| CC[C@H](C)[C@H](NC(=O)[C@H](Cc1ccc(O)cc1)NC(=O)[C@@H](NC(=O)[C@@H]1CCCN1C(=O)[C@H](CCCNC(=N)N)NC(=O)[C@H](CC(N)=O)NC(=O)[C@H](CC(N)=O)NC(=O)CN)C(C)C)C(=O)N1CCC[C@H]1C(=O)N[C@@H](CCC(N)=O)C(=O)N1CCC[C@H]1C(=O)N[C@@H](CCCNC(=N)N)C(=O)N[C@@H](CCCNC(=N)N)C(=O)N1CCC[C@H]1C(=O)N[C@@H](Cc1c[nH]cn1)C(=O)N1CCC[C@H]1C(=O)N[C@@H](CCCNC(=N)N)C(=O)N[C@@H](CC(C)C)C(N)=O [compound 59] (H-GNNRPVYIPQPRRPHPRL-NH2; N-terminus assumed) | 125 (≈ 57.7 µM) | 4 | 31 (≈ 14.3 µM) | 8 | 10 (≈ 4.62 µM) | 1 |
| CC[C@H](C)[C@H](NC(=O)[C@H](Cc1ccc(O)cc1)NC(=O)[C@@H](NC(=O)[C@@H]1CCCN1C(=O)[C@H](CCCNC(=N)N)NC(=O)[C@H](CC(N)=O)NC(=O)[C@H](CC(N)=O)NC(=O)CN)C(C)C)C(=O)N1CCC[C@H]1C(=O)N[C@@H](CCC(N)=O)C(=O)N1CCC[C@H]1C(=O)N[C@@H](CCCNC(=N)N)C(=O)N1CCC[C@H]1C(=O)N[C@@H](CS)C(=O)N[C@@H](Cc1c[nH]cn1)C(=O)N1CCC[C@H]1C(=O)N[C@@H](CCCNC(=N)N)C(=O)N[C@@H](CC(C)C)C(N)=O [compound 60] (H-GNNRPVYIPQPRPCHPRL-NH2; N-terminus assumed) | 250 (≈ 118 µM) | 2 | 16 (≈ 7.57 µM) | 16 | 20 (≈ 9.46 µM) | 0 |
| CC[C@H](C)[C@H](NC(=O)[C@H](Cc1ccc(O)cc1)NC(=O)[C@@H](NC(=O)[C@@H]1CCCN1C(=O)[C@H](CCCNC(=N)N)NC(=O)[C@H](CC(N)=O)NC(=O)[C@H](CC(N)=O)NC(=O)CN)C(C)C)C(=O)N1CCC[C@H]1C(=O)N[C@@H](CCC(N)=O)C(=O)N1CCC[C@H]1C(=O)N[C@@H](CCCNC(=N)N)C(=O)N1CCC[C@H]1C(=O)N1CCC[C@H]1C(=O)N[C@@H](Cc1c[nH]cn1)C(=O)N[C@@H](CS)C(=O)N[C@@H](CCCNC(=N)N)C(=O)N[C@@H](CC(C)C)C(N)=O [compound 61] (H-GNNRPVYIPQPRPPHCRL-NH2; N-terminus assumed) | 125 (≈ 59.1 µM) | 4 | 32 (≈ 15.1 µM) | 8 |  | 0 |
| CC[C@H](C)[C@H](NC(=O)[C@H](Cc1ccc(O)cc1)NC(=O)[C@@H](NC(=O)[C@@H]1CCCN1C(=O)[C@H](CCCNC(=N)N)NC(=O)[C@H](CC(N)=O)NC(=O)[C@H](CC(N)=O)NC(=O)CN)C(C)C)C(=O)N1CCC[C@H]1C(=O)N[C@@H](CCC(N)=O)C(=O)N1CCC[C@H]1C(=O)N[C@@H](CCCNC(=N)N)C(=O)N1CCC[C@H]1C(=O)N1CCC[C@H]1C(=O)N[C@@H](Cc1c[nH]cn1)C(=O)N1CCC[C@H]1C(=O)N[C@@H](CCCNC(=N)N)C(=O)N[C@@H](CCCNC(=N)N)C(N)=O [compound 62] (H-GNNRPVYIPQPRPPHPRR-NH2; N-terminus assumed) | 125 (≈ 58.1 µM) | 4 | 125 (≈ 58.1 µM) | 2 | 1.25 to 2.5 | 2-4 |
| CC[C@H](C)[C@H](NC(=O)[C@H](Cc1ccc(O)cc1)NC(=O)[C@@H](NC(=O)[C@@H]1CCCN1C(=O)[C@H](CCCNC(=N)N)NC(=O)[C@H](CC(N)=O)NC(=O)[C@H](Cc1c[nH]c2ccccc12)NC(=O)CN)C(C)C)C(=O)N1CCC[C@H]1C(=O)N[C@@H](CCCNC(=N)N)C(=O)N1CCC[C@H]1C(=O)N[C@@H](CCCNC(=N)N)C(=O)N1CCC[C@H]1C(=O)N1CCC[C@H]1C(=O)N[C@@H](Cc1c[nH]cn1)C(=O)N1CCC[C@H]1C(=O)N[C@@H](CCCNC(=N)N)C(=O)N[C@@H](CC(C)C)C(N)=O [compound 63] (H-GWNRPVYIPRPRPPHPRL-NH2; N-terminus assumed) | 16 to 32 | 16-32 | 16 (≈ 7.25 µM) | 16 |  | 8 |
